This passage reports solubility results from EP2253629A1, “Polymorphs of racemic sunitinib malate, compositions containing them and preparation thereof” (Teva Pharmaceutical Industries Ltd., priority 2007, dated 2009).

The data set can be described thus: solubility in water. The class given is physicochemical.

The molecule `CCN(CC)CCNC(=O)c1c(C)[nH]c(/C=C2\C(=O)Nc3ccc(F)cc32)c1C` [sunitinib base form VIII, N-[2-(diethylamino)ethyl]-5-[(Z)-(5-fluoro-1,2-dihydro-2-oxo-3H-indol-3-ylidine)methyl]-2,4-dimethyl-1 H-pyrrole-3-carboxamide] returned a solubility of under 1000 µg/mL.
